Data as given in patent US8895579B2, “Heterotricyclic AMPA receptor antagonists for treatment of epilepsy, pain, and other neurological disorders and diseases” (Northwestern University, priority 2010, dated 2014).

System: NMDA receptor-mediated EPSCs, CA1 pyramidal cells
Assay: NMDA receptor EPSCs at Schaffer collateral-CA1 synapses, acute hippocampal slices
Assay type: cell-based, mouse
Conditions: 20 μM; 5 min treatment
Procedure: For recordings from acute hippocampal slices, brains from P15-21 C57Bl/6 mice were sliced transversely (350 μm thickness) in a sucrose slicing solution containing (in mM) 85 NACl, 2.5 KCl, 1.25 NaH2PO4, 25 NaHCO3, 25 glucose, 75 sucrose, 0.5 CaCl2, 4 MgCl2, 0.5 Na ascorbate, 10 μM DL-APV and 100 μM kynurenic acid (pH 7.3). After slicing, the solution was exchanged with an incubation solution containing (in mM) 125 NaCl, 2.4 KCl, 1.2 NaH2PO4, 25 NaHCO3, 25 glucose: 1 CaCl2, 2 MgCl2, 0.5 Na ascorbate, 10 μM DL-APV and 100 μM kynurenic acid (pH 7.3) that was bubbled continuously with CO2-balanced O2 (carbogen). […] Recordings in voltage clamp mode used the CsF/CsCl internal solution and carbogenated external recording solution containing (in mM) 120 NaCl, 2.4 KCl, 2 MgCl2, 1 CaCl2, 25 NaHCO3, 1.2 NaH2PO4, 25 glucose, 10 μM bicuculline methiodide, 50 μM PTX and 50 μM D-APV (pH 7.3). […] NMDA EPSCs were validated by addition of D-APV (50 μM) at the end of each recording. Hippocampal CA1 or CA3 pyramidal cells were voltage clamped at −70 mV and stimulated with a monopolar electrode either the stratum radiatum or stratum lucidum, respectively. […] EPSC charge transfer, AP frequency, paired-pulse ratio and EPSC peak amplitude were analyzed with Mini-Analysis v6.03 (Synaptosoft, Decatur, Ga.) and Clampfit v10.0 (MDS, Sunnyvale, Calif.) software.

SMILES: O=C(O)C[C@@]12O[C@H]3C=CCN[C@H]3C1CN[C@H]2C(=O)O (stereo partly shown) [IKM-159]
- NMDA receptor-mediated EPSC amplitude, % of control amplitudes: 99±3%
